Reference: patent publication US20240059703A1 (AMGEN INC., priority 2021, published 2024)

What was measured:
[1] = test system: A549 (human lung carcinoma) cells; assay: Cell Viability Assay (CellTiter-Glo), A549; format: cell-based; details: Homo sapiens, A549, 72 h
Method in brief: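 Seeding at 1.67E+04 cells/mL is followed by overnight attachment at 37° C., 5% CO2. Serially diluted compound is added for 72 h. Viability is read by CellTiter-Glo luminescence, scaled to DMSO and fitted (4-parameter logistic) to give IC50.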

KRAS G12C = KRAS G12C (Homo sapiens (Human), UniProt P01116, C118A/G12C); assay: 2 h coupled exchange assay; format: biochemical; details: Avg 2 h Coupled exchange IC50, 2 h compound pre-incubation
Method: The term “2 h coupled exchange assay” or “20 h coupled exchange assay” as used herein refers to the assay described in the Section entitled “BIOLOGICAL EVALUATION.”

[2] = test system: MIA PaCa-2 (human pancreatic carcinoma) cells; assay: Cell Viability Assay (CellTiter-Glo), MIA PaCa-2; format: cell-based
Method: Serially-diluted compound or DMSO was added to the cells, and plates were incubated at 37° C., 5% CO2 for 72 h. Cell viability was measured using a CellTiter-Glo® Luminescent Cell Viability Assay kit (Promega) according to the manufacturer's protocol. The luminescence signal of treated samples was normalized to DMSO control, and data were analyzed using a 4-parameter logistic model to calculate IC50 values.

[3] = SOS-mediated nucleotide exchange

Sequence of KRAS G12C (P01116 other isoform, or with tags, fused parts or gaps G12C/C118A): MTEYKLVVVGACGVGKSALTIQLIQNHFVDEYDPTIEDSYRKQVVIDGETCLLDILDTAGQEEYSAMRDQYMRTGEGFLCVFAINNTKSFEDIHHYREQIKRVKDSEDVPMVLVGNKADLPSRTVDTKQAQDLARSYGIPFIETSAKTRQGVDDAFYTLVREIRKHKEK

## C=CC(=O)N1CC2(CCN(c3nc4c(c(-c5c(C)ccc6[nH]ncc56)c3C#N)CCC(C)(C)C4)[C@H]2CF)C1 (stereo in doubt) [Example 13-80, (M)-2-((5S)-5-(fluoromethyl)-2-(2-propenoyl)-2,6-diazaspiro[3.4]octan-6-yl)-7,7-dimethyl-4-(5-methyl-1H-indazol-4-yl)-5,6,7,8-tetrahydro-3-quinolinecarbonitrile and (P)-2-((5R)-5-(fluoromethyl)-2-(2-propenoyl)-2,6-diazaspiro[3.4]octan-6-yl)-7,7-dimethyl-4-(5-methyl-1H-indazol-4-yl)-5,6,7,8-tetrahydro-3-quinolinecarbonitrile]
[1]
  IC50: > 5 µM
KRAS G12C; [3]
  IC50: 0.045 µM
[2]; Homo sapiens, MIA PaCa-2, 72 h
  IC50: 0.952 µM

## C=CC(=O)N1CC2(CCN(c3nc4c(c(-c5c(C)ccc6[nH]ncc56)c3C#N)CCCCC4)C2)C1 [Example 2-10, 4-(5-methyl-1H-indazol-4-yl)-2-(2-(2-propenoyl)-2,6-diazaspiro[3.4]octan-6-yl)-6,7,8,9-tetrahydro-5H-cyclohepta[b]pyridine-3-carbonitrile]
[1]
  IC50: > 5 µM
KRAS G12C; [3]
  IC50: 0.044 µM
[2]; Homo sapiens, MIA PaCa-2, 72 h
  IC50: 0.452 µM

## C=CC(=O)N1CC2(CCN(c3nc4c(c(-c5c(C)ccc6[nH]ncc56)c3C#N)C3C(C4)C3(C)C)C2)C1 (stereo not drawn) [Example 13-84]
[1]
  IC50: > 5 µM
KRAS G12C; [3]
  IC50: 0.108 µM
[2]; Homo sapiens, MIA PaCa-2, 72 h
  IC50: 0.479 µM

## C=CC(=O)N1CC2(CCN(c3nc4c(c(-c5ncccc5C)c3C#N)CC[C@@](C)(c3scnc3C)C4)C2)C1 [Example 23-10, (7R)-7-methyl-4-(3-methyl-2-pyridinyl)-7-(4-methyl-1,3-thiazol-5-yl)-2-(2-(2-propenoyl)-2,6-diazaspiro[3.4]octan-6-yl)-5,6,7,8-tetrahydro-3-quinolinecarbonitrile]
[1]
  IC50: > 5 µM
KRAS G12C
  IC50: 0.2 µM
[2]; Homo sapiens, MIA PaCa-2, 72 h
  IC50: 0.478 µM

## C=CC(=O)N1CC2(CCN(c3nc4c(c(-c5c(C)ccc6cnn(C)c56)c3C)CCN(C3(C)COC3)C4)C2)C1 [Example 36-1, 1-(6-(4-(1,6-dimethyl-1H-indazol-7-yl)-3-methyl-7-(3-methyl-3-oxetanyl)-5,6,7,8-tetrahydro-1,7-naphthyridin-2-yl)-2,6-diazaspiro[3.4]octan-2-yl)-2-propen-1-one]
[1]
  IC50: 14.6 µM
KRAS G12C
  IC50: 0.589 µM
[2]; Homo sapiens, MIA PaCa-2, 72 h
  IC50: 0.335 µM

## C=CC(=O)N1CC2(CCN(c3nc4c(c(-c5cc(O)cc6ccccc56)c3C#N)C[C@H]3C[C@@H]4C3(C)C)C2)C1 (single isomer, unassigned) [Example 13-129]
[1]
  IC50: > 5 µM
KRAS G12C; [3]
  IC50: 0.013 µM
[2]; Homo sapiens, MIA PaCa-2, 72 h
  IC50: 0.021 µM

## C=CC(=O)N1CC2(CCN(c3nc4c(c(-c5ccccc5F)c3C#N)CCN(c3scnc3C)[C@@H]4C)C2)C1 [Example 21-5, (8R)-4-(2-fluorophenyl)-8-methyl-7-(4-methyl-1,3-thiazol-5-yl)-2-(2-(2-propenoyl)-2,6-diazaspiro[3.4]octan-6-yl)-5,6,7,8-tetrahydro-1,7-naphthyridine-3-carbonitrile]
[1]
  IC50: 3.98 µM
KRAS G12C
  IC50: 0.057 µM
[2]; Homo sapiens, MIA PaCa-2, 72 h
  IC50: 0.454 µM

## C=CC(=O)N1CC2(CCN(c3nc4c(c(-c5cc(O)ccc5F)c3C#N)CC3CCC4N3C(C)C)C2)C1 (stereo not drawn) [Example 21-8]
[1]
  IC50: > 25 µM
KRAS G12C
  IC50: 0.933 µM
[2]; Homo sapiens, MIA PaCa-2, 72 h
  IC50: 5.56 µM

## C=CC(=O)N1CC2(CCN(c3nc4c(c(-c5c(C)ccc6[nH]ncc56)c3C)COC(C)(C)C4)C2)C1 [Example 14-23, 1-(6-(3,7,7-trimethyl-4-(5-methyl-1H-indazol-4-yl)-7,8-dihydro-5H-pyrano[4,3-b]pyridin-2-yl)-2,6-diazaspiro[3.4]octan-2-yl)-2-propen-1-one]
[1]
  IC50: > 5 µM
KRAS G12C
  IC50: 0.102 µM
[2]; Homo sapiens, MIA PaCa-2, 72 h
  IC50: 0.018 µM

## C=CC(=O)N1CC2(CCN(c3nc4c(c(-c5cc(O)cc6cccnc56)c3C#N)C[C@H]3C[C@@H]4C3(C)C)C2)C1 (single isomer, unassigned) [Example 2-45]
[1]
  IC50: > 5 µM
KRAS G12C; [3]
  IC50: 0.077 µM
[2]; Homo sapiens, MIA PaCa-2, 72 h
  IC50: > 5 µM

## C=CC(=O)N1CC2(CCN(c3nc4c(c(-c5cc(O)ccc5Cl)c3C#N)C[C@H]3C[C@@H]4C3(C)C)C2)C1 [Example 2-64, (1R,9R)-6-(2-chloro-5-hydroxyphenyl)-10,10-dimethyl-4-(2-(2-propenoyl)-2,6-diazaspiro[3.4]octan-6-yl)-3-azatricyclo[7.1.1.0^2,7]undeca-2,4,6-triene-5-carbonitrile]
[1]
  IC50: > 5 µM
KRAS G12C; [3]
  IC50: 0.039 µM
[2]; Homo sapiens, MIA PaCa-2, 72 h
  IC50: 0.432 µM

## C=CC(=O)N1CC2(CCN(c3nc4c(c(-c5cc(O)ccc5Cl)c3C)CCN(C(C)C)C4)C2)C1 [Example 18-9, 1-(6-(4-(2-chloro-5-hydroxyphenyl)-3-methyl-7-(2-propanyl)-5,6,7,8-tetrahydro-1,7-naphthyridin-2-yl)-2,6-diazaspiro[3.4]octan-2-yl)-2-propen-1-one]
[1]
  IC50: > 5 µM
KRAS G12C
  IC50: 0.419 µM
[2]; Homo sapiens, MIA PaCa-2, 72 h
  IC50: 0.316 µM

## C=CC(=O)N1CC2(CCN(c3nc4c(F)cccc4c(-c4c(C)ccc5[nH]ncc45)c3C#N)C2=O)C1 [Example 1-44, 8-fluoro-4-(5-methyl-1H-indazol-4-yl)-2-(5-oxo-2-(2-propenoyl)-2,6-diazaspiro[3,4]octan-6-yl)-3-quinolinecarbonitrile]
[1]
  IC50: 12.5 µM
KRAS G12C; [3]
  IC50: 6.83 µM
[2]; Homo sapiens, MIA PaCa-2, 72 h
  IC50: 6.4 µM

## C=CC(=O)N1CC2(CCN(c3nc4c(c(-c5cccc6cc(O)ccc56)c3C)CCN(C3CC3)C4)C2)C1 [Example 18-17, 1-(6-(7-cyclopropropyl-4-(6-hydroxy-1-naphthalenyl)-3-methyl-5,6,7,8-tetrahydro-1,7-naphthyridin-2-yl)-2,6-diazaspiro[3.4]octan-2-yl)-2-propen-1-one]
[1]
  IC50: > 5 µM
KRAS G12C
  IC50: 0.079 µM
[2]; Homo sapiens, MIA PaCa-2, 72 h
  IC50: 0.133 µM

## C=CC(=O)N1CC2(CCN(c3cc4c(c(-c5c(C)ccc6[nH]ncc56)c3Cl)OCCC4)C2)C1 [Example 31-1, 1-(6-(7-chloro-8-(5-methyl-1H-indazol-4-yl)-3,4-dihydro-2H-chromen-6-yl)-2,6-diazaspiro[3.4]octan-2-yl)-2-propen-1-one]
[1]
  IC50: > 5 µM
KRAS G12C
  IC50: 0.076 µM
[2]; Homo sapiens, MIA PaCa-2, 72 h
  IC50: 0.034 µM

## C=CC(=O)N1CC2(CCN(c3nc4c(c(-c5cccc6cc(O)ccc56)c3C)CCN(C(C)COC)C4)C2)C1 [Example 18-8, 1-(6-(4-(6-hydroxy-1-naphthalenyl)-7-((2R)-1-methoxy-2-propanyl)-3-methyl-5,6,7,8-tetrahydro-1,7-naphthyridin-2-yl)-2,6-diazaspiro[3.4]octan-2-yl)-2-propen-1-one|1-(6-(4-(6-hydroxy-1-naphthalenyl)-7-((2S)-1-methoxy-2-propanyl)-3-methyl-5,6,7,8-tetrahydro-1,7-naphthyridin-2-yl)-2,6-diazaspiro[3.4]octan-2-yl)-2-propen-1-one]
[1]
  IC50: > 5 µM
KRAS G12C
  IC50: 0.047 µM
[2]; Homo sapiens, MIA PaCa-2, 72 h
  IC50: 0.17 µM

## C=CC(=O)N1CC2(CCN(c3nc4c(c(-c5cc(O)c(F)c6ccccc56)c3C#N)COC(C)(C)C4)C2)C1 (single isomer, unassigned) [Example 13-78, (P)-4-(4-fluoro-3-hydroxy-1-naphthalenyl)-7,7-dimethyl-2-(2-(2-propenoyl)-2,6-diazaspiro[3.4]octan-6-yl)-7,8-dihydro-5H-pyrano[4,3-b]pyridine-3-carbonitrile]
[1]
  IC50: > 5 µM
KRAS G12C; [3]
  IC50: 0.076 µM
[2]; Homo sapiens, MIA PaCa-2, 72 h
  IC50: 0.842 µM

## C=CC(=O)N1CC2(C1)CN(c1nc3c(F)cccc3c(-c3c(C)ccc4[nH]ncc34)c1C#N)CC2F (stereo not drawn) [Example 1-13, 8-fluoro-2-((8)-8-fluoro-2-(2-propenoyl)-2,6-diazaspiro[3.4]octan-6-yl)-4-(5-methyl-1H-indazol-4-yl)-3-quinolinecarbonitrile]
[1]
  IC50: 3.12 µM
KRAS G12C; [3]
  IC50: 0.601 µM
[2]; Homo sapiens, MIA PaCa-2, 72 h
  IC50: 1.88 µM

## C=CC(=O)N1CC2(CCN(c3nc4c(c(-c5c(C)ccc6cn[nH]c56)c3C#N)COC(C)(C)C4)C2)C1 [Example 14-80, 7,7-dimethyl-4-(6-methyl-1H-indazol-7-yl)-2-(2-(2-propenoyl)-2,6-diazaspiro[3.4]octan-6-yl)-7,8-dihydro-5H-pyrano[4,3-b]pyridine-3-carbonitrile]
[1]
  IC50: > 5 µM
KRAS G12C
  IC50: 0.089 µM
[2]; Homo sapiens, MIA PaCa-2, 72 h
  IC50: 1.19 µM

## C=CC(=O)N1CC2(CCN(c3nc4c(c(-c5c(C)c(Cl)cc6[nH]ncc56)c3C)COC(C)(C)C4)C2)C1 [Example 2-36, 1-(6-(4-(6-chloro-5-methyl-1H-indazol-4-yl)-3,7,7-trimethyl-7,8-dihydro-5H-pyrano[4,3-b]pyridin-2-yl)-2,6-diazaspiro[3.4]octan-2-yl)-2-propen-1-one]
[1]
  IC50: > 5 µM
KRAS G12C; [3]
  IC50: 0.02 µM
[2]; Homo sapiens, MIA PaCa-2, 72 h
  IC50: 0.013 µM

## C=CC(=O)N1CC2(CCN(c3nc4c(c(-c5c(C)ccc6[nH]ncc56)c3F)C[C@H]3C[C@@H]4C3(C)C)C2)C1 [Example 14-72, 1-(6-((1R,9R)-5-fluoro-10,10-dimethyl-6-(5-methyl-1H-indazol-4-yl)-3-azatricyclo[7.1.1.0^2,7]undeca-2,4,6-trien-4-yl)-2,6-diazaspiro[3.4]octan-2-yl)-2-propen-1-one]
[1]
  IC50: > 5 µM
KRAS G12C
  IC50: 0.03 µM
[2]; Homo sapiens, MIA PaCa-2, 72 h
  IC50: 0.024 µM

## C=CC(=O)N1CC2(CCN(c3nc4cc(-c5scnc5C)cnc4c(-c4ccccc4Cl)c3C#N)C2)C1 (single isomer, unassigned) [Example 20-8, (M)-4-(2-chlorophenyl)-7-(4-methyl-1,3-thiazol-5-yl)-2-(2-(2-propenoyl)-2,6-diazaspiro[3.4]octan-6-yl)-1,5-naphthyridine-3-carbonitrile]
[1]
  IC50: > 5 µM
KRAS G12C
  IC50: 0.139 µM
[2]; 72 h
  IC50: 0.974 µM
